Source: the supplement of paper PMC10307832

Compound: C1=CC2=C(C=C(C(=C2N=C1)O)N=NC3=CC4=C(C=C3)C=C(C=C4)S(=O)(=O)O)S(=O)(=O)O + O=C(c1cc(Cc2n[nH]c(=O)c3ccccc23)ccc1F)N1CCN(C(=O)C2CC2)CC1 [Olaparib] (partner 8 µM)
Assay: relative viability (nuclei count vs DMSO), 5 days (fraction); higher = more cells survive
Details: first compound 0.253 µM
Procedure, shortened: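 Relative viability equals treated-well nuclei counts divided by vehicle-well nuclei counts. Counts came from 4× images of lung cancer cell lines grown in 1536-well plates for 5 days after pin-tool dosing on the day after seeding. Dosing used one drug alone or a fixed anchor-drug dose plus five library-drug doses (not always all listed) in √10 steps, and values are medians of duplicate plates.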

Question: How did the relative viability turn out when NCI-H838 was run?
Answer: 0.739

Question: With LCLC-103H as the cell line, how does the relative viability read?
Answer: 0.721

Question: How did the relative viability turn out when NCI-H520 was run?
Answer: 0.342

Question: NCI-H2126 was tested. Which relative viability did it give?
Answer: 0.901

Question: With EMC-BAC-2 as the cell line, how does the relative viability read?
Answer: 0.485

Question: For NCI-H2085, which relative viability is on record?
Answer: 0.757

Question: Calu-6 was tested. Which relative viability did it give?
Answer: 0.546

Question: HCC-366 was tested. Which relative viability did it give?
Answer: 0.402

Question: How did the relative viability turn out when NCI-H1666 was run?
Answer: 0.754

Question: With NCI-H596 as the cell line, how does the relative viability read?
Answer: 0.798

Question: How did the relative viability turn out when LK-2 was run?
Answer: 0.678

Question: For NCI-H2087, which relative viability is on record?
Answer: 0.651

Question: How did the relative viability turn out when NCI-H1648 was run?
Answer: 0.793

Question: SK-MES-1 was tested. Which relative viability did it give?
Answer: 0.703

Question: For H3255, which relative viability is on record?
Answer: 0.571

Question: For COR-L23, which relative viability is on record?
Answer: 0.344

Question: COR-L 105 was tested. Which relative viability did it give?
Answer: 0.62

Question: IA-LM was tested. Which relative viability did it give?
Answer: 0.777

Question: LOU-NH91 was tested. Which relative viability did it give?
Answer: 0.907

Question: With ChaGo-K-1 as the cell line, how does the relative viability read?
Answer: 0.405

Question: How did the relative viability turn out when NCI-H2170 was run?
Answer: 0.557

Question: How did the relative viability turn out when NCI-H2405 was run?
Answer: 0.888

Question: How did the relative viability turn out when HOP-62 was run?
Answer: 0.376

Question: Which relative viability does the source give for HCC-44 here?
Answer: 0.945

Question: How did the relative viability turn out when A549 was run?
Answer: 0.331

Question: With NCI-H522 as the cell line, how does the relative viability read?
Answer: 0.625

Question: Which relative viability does the source give for LU99A here?
Answer: 0.282

Question: BEN was tested. Which relative viability did it give?
Answer: 1.13

Question: Which relative viability does the source give for HARA here?
Answer: 0.797

Question: SW 900 was tested. Which relative viability did it give?
Answer: 0.826

Question: With NCI-H2009 as the cell line, how does the relative viability read?
Answer: 0.663

Question: Which relative viability does the source give for NCI-H661 here?
Answer: 0.744

Question: For SK-LU-1, which relative viability is on record?
Answer: 0.475

Question: NCI-H1299 was tested. Which relative viability did it give?
Answer: 0.95

Question: For CAL-12T, which relative viability is on record?
Answer: 0.678

Question: With NCI-H2228 as the cell line, how does the relative viability read?
Answer: 0.772

Question: For NCI-H2023, which relative viability is on record?
Answer: 0.443

Same assay, conditions: first compound 0.8 µM

Question: How did the relative viability turn out when NCI-H2342 was run?
Answer: 0.452

Question: NCI-H727 was tested. Which relative viability did it give?
Answer: 0.684

Question: How did the relative viability turn out when NCI-H1650 was run?
Answer: 0.781

Question: How did the relative viability turn out when EBC-1 was run?
Answer: 0.694

Question: With NCI-H1703 as the cell line, how does the relative viability read?
Answer: 0.339

Question: NCI-H1993 was tested. Which relative viability did it give?
Answer: 1.18

Question: How did the relative viability turn out when SW 1573 was run?
Answer: 0.523

Question: How did the relative viability turn out when NCI-H838 was run?
Answer: 0.743

Question: For LCLC-103H, which relative viability is on record?
Answer: 0.735

Question: With NCI-H520 as the cell line, how does the relative viability read?
Answer: 0.337

Question: Which relative viability does the source give for NCI-H2126 here?
Answer: 0.904

Question: For EMC-BAC-2, which relative viability is on record?
Answer: 0.493

Question: How did the relative viability turn out when NCI-H2085 was run?
Answer: 0.811

Question: Which relative viability does the source give for Calu-6 here?
Answer: 0.55

Question: For HCC-366, which relative viability is on record?
Answer: 0.335

Question: How did the relative viability turn out when NCI-H1666 was run?
Answer: 0.762

Question: Which relative viability does the source give for NCI-H596 here?
Answer: 0.639

Question: How did the relative viability turn out when LK-2 was run?
Answer: 0.581

Question: NCI-H2087 was tested. Which relative viability did it give?
Answer: 0.622

Question: How did the relative viability turn out when SK-MES-1 was run?
Answer: 0.609

Question: Which relative viability does the source give for H3255 here?
Answer: 0.551

Question: COR-L23 was tested. Which relative viability did it give?
Answer: 0.35

Question: Which relative viability does the source give for COR-L 105 here?
Answer: 0.732

Question: For IA-LM, which relative viability is on record?
Answer: 0.788

Question: LOU-NH91 was tested. Which relative viability did it give?
Answer: 0.927

Question: With ChaGo-K-1 as the cell line, how does the relative viability read?
Answer: 0.438

Question: With NCI-H2170 as the cell line, how does the relative viability read?
Answer: 0.595

Question: Which relative viability does the source give for NCI-H2405 here?
Answer: 0.816

Question: HOP-62 was tested. Which relative viability did it give?
Answer: 0.312

Question: For HCC-44, which relative viability is on record?
Answer: 0.956

Question: For A549, which relative viability is on record?
Answer: 0.299

Question: For NCI-H522, which relative viability is on record?
Answer: 0.564

Question: For LU99A, which relative viability is on record?
Answer: 0.286

Question: For BEN, which relative viability is on record?
Answer: 1.05

Question: HARA was tested. Which relative viability did it give?
Answer: 0.697

Question: Which relative viability does the source give for SW 900 here?
Answer: 0.75

Question: With NCI-H2009 as the cell line, how does the relative viability read?
Answer: 0.681

Question: Which relative viability does the source give for NCI-H661 here?
Answer: 0.831

Question: For SK-LU-1, which relative viability is on record?
Answer: 0.399

Question: NCI-H1299 was tested. Which relative viability did it give?
Answer: 0.935

Question: How did the relative viability turn out when CAL-12T was run?
Answer: 0.648

Question: NCI-H2228 was tested. Which relative viability did it give?
Answer: 0.658

Question: NCI-H2023 was tested. Which relative viability did it give?
Answer: 0.442

Same assay, conditions: first compound 2.53 µM

Question: NCI-H2342 was tested. Which relative viability did it give?
Answer: 0.462

Question: Which relative viability does the source give for NCI-H727 here?
Answer: 0.859

Question: How did the relative viability turn out when NCI-H1650 was run?
Answer: 0.812

Question: For EBC-1, which relative viability is on record?
Answer: 0.758

Question: How did the relative viability turn out when NCI-H1703 was run?
Answer: 0.475

Question: With NCI-H1993 as the cell line, how does the relative viability read?
Answer: 1.09

Question: How did the relative viability turn out when SW 1573 was run?
Answer: 0.483

Question: For NCI-H838, which relative viability is on record?
Answer: 0.777

Question: With LCLC-103H as the cell line, how does the relative viability read?
Answer: 0.779

Question: NCI-H520 was tested. Which relative viability did it give?
Answer: 0.301

Question: Which relative viability does the source give for NCI-H2126 here?
Answer: 0.893

Question: How did the relative viability turn out when EMC-BAC-2 was run?
Answer: 0.489

Question: NCI-H2085 was tested. Which relative viability did it give?
Answer: 0.757

Question: With Calu-6 as the cell line, how does the relative viability read?
Answer: 0.58

Question: How did the relative viability turn out when HCC-366 was run?
Answer: 0.361

Question: With NCI-H1666 as the cell line, how does the relative viability read?
Answer: 0.745

Question: For NCI-H596, which relative viability is on record?
Answer: 0.746

Question: With LK-2 as the cell line, how does the relative viability read?
Answer: 0.74

Question: For NCI-H2087, which relative viability is on record?
Answer: 0.563

Question: For SK-MES-1, which relative viability is on record?
Answer: 0.691

Question: How did the relative viability turn out when H3255 was run?
Answer: 0.638

Question: Which relative viability does the source give for COR-L23 here?
Answer: 0.394

Question: How did the relative viability turn out when COR-L 105 was run?
Answer: 0.701

Question: With IA-LM as the cell line, how does the relative viability read?
Answer: 0.747

Question: Which relative viability does the source give for LOU-NH91 here?
Answer: 0.881

Question: With ChaGo-K-1 as the cell line, how does the relative viability read?
Answer: 0.422

Question: Which relative viability does the source give for NCI-H2170 here?
Answer: 0.614

Question: NCI-H2405 was tested. Which relative viability did it give?
Answer: 0.898

Question: How did the relative viability turn out when HOP-62 was run?
Answer: 0.465

Question: For HCC-44, which relative viability is on record?
Answer: 0.982

Question: For A549, which relative viability is on record?
Answer: 0.313

Question: For NCI-H522, which relative viability is on record?
Answer: 0.561

Question: LU99A was tested. Which relative viability did it give?
Answer: 0.257

Question: Which relative viability does the source give for BEN here?
Answer: 1.27

Question: How did the relative viability turn out when HARA was run?
Answer: 0.741

Question: With SW 900 as the cell line, how does the relative viability read?
Answer: 0.878

Question: Which relative viability does the source give for NCI-H2009 here?
Answer: 0.743

Question: Which relative viability does the source give for NCI-H661 here?
Answer: 0.761

Question: How did the relative viability turn out when SK-LU-1 was run?
Answer: 0.567

Question: NCI-H1299 was tested. Which relative viability did it give?
Answer: 0.956

Question: How did the relative viability turn out when CAL-12T was run?
Answer: 0.681

Question: With NCI-H2228 as the cell line, how does the relative viability read?
Answer: 0.851

Question: With NCI-H2023 as the cell line, how does the relative viability read?
Answer: 0.528

Same assay, conditions: first compound 8 µM

Question: For NCI-H2342, which relative viability is on record?
Answer: 0.711

Question: With NCI-H727 as the cell line, how does the relative viability read?
Answer: 0.665

Question: With NCI-H1650 as the cell line, how does the relative viability read?
Answer: 0.894

Question: Which relative viability does the source give for EBC-1 here?
Answer: 0.732

Question: NCI-H1703 was tested. Which relative viability did it give?
Answer: 0.41

Question: How did the relative viability turn out when NCI-H1993 was run?
Answer: 1.1

Question: How did the relative viability turn out when SW 1573 was run?
Answer: 0.29

Question: For NCI-H838, which relative viability is on record?
Answer: 0.77

Question: With LCLC-103H as the cell line, how does the relative viability read?
Answer: 0.753

Question: Which relative viability does the source give for NCI-H520 here?
Answer: 0.387

Question: With NCI-H2126 as the cell line, how does the relative viability read?
Answer: 0.874

Question: How did the relative viability turn out when EMC-BAC-2 was run?
Answer: 0.465

Question: With NCI-H2085 as the cell line, how does the relative viability read?
Answer: 0.722

Question: How did the relative viability turn out when Calu-6 was run?
Answer: 0.658

Question: With HCC-366 as the cell line, how does the relative viability read?
Answer: 0.319

Question: With NCI-H1666 as the cell line, how does the relative viability read?
Answer: 0.712

Question: With NCI-H596 as the cell line, how does the relative viability read?
Answer: 0.747

Question: LK-2 was tested. Which relative viability did it give?
Answer: 0.728

Question: NCI-H2087 was tested. Which relative viability did it give?
Answer: 0.601

Question: With NCI-H1648 as the cell line, how does the relative viability read?
Answer: 0.893

Question: Which relative viability does the source give for SK-MES-1 here?
Answer: 0.707

Question: With H3255 as the cell line, how does the relative viability read?
Answer: 0.587

Question: How did the relative viability turn out when COR-L23 was run?
Answer: 0.296

Question: With COR-L 105 as the cell line, how does the relative viability read?
Answer: 0.83

Question: How did the relative viability turn out when IA-LM was run?
Answer: 0.952

Question: For LOU-NH91, which relative viability is on record?
Answer: 0.919

Question: For ChaGo-K-1, which relative viability is on record?
Answer: 0.341

Question: Which relative viability does the source give for NCI-H2170 here?
Answer: 0.576

Question: How did the relative viability turn out when NCI-H2405 was run?
Answer: 0.845

Question: HOP-62 was tested. Which relative viability did it give?
Answer: 0.516

Question: For HCC-44, which relative viability is on record?
Answer: 0.933

Question: A549 was tested. Which relative viability did it give?
Answer: 0.135

Question: How did the relative viability turn out when NCI-H522 was run?
Answer: 0.708

Question: LU99A was tested. Which relative viability did it give?
Answer: 0.243

Question: Which relative viability does the source give for BEN here?
Answer: 0.974

Question: HARA was tested. Which relative viability did it give?
Answer: 0.764
